In patent publication US11834434B2, “Substituted 2-heteroaryloxypyridines and salts thereof and their use as herbicidal agents” (Bayer Aktiengesellschaft, priority 2018, dated 2023):

Columns and labels:
Assay type in all cases: in vivo
Lolium rigidum (LOLRI) = test: Pre-emergence herbicidal action against Lolium rigidum; conditions: 1280 g/ha; scored visually after about 3 weeks vs untreated controls; 100% = plants have died, 0% = like control plants
Description: (§1) Seeds of mono- and dicotyledonous weed plants were placed in plastic pots in sandy loam soil (doubly sown with in each case one species of mono- or dicotyledonous weed plants per pot) and covered with soil. The compounds of the invention, formulated in the form of wettable powders (WP) or as emulsion concentrates (EC), were then applied onto the surface of the covering soil as aqueous suspension or emulsion with addition of 0.5% additive at a water application rate of 600 liters per hectare (converted). After the treatment, the pots were placed in a greenhouse and kept under good growth conditions for the test plants. After about 3 weeks, the effect of the preparations was scored visually in comparison with untreated controls as percentages. For example, 100% activity=the plants have died, 0% activity=like control plants. Tables C1 to C8 below show the effects of selected compounds of the general formula (I) according to Table 1 on various harmful plants and an application rate corresponding to 1280 g/ha, which were obtained by the experimental procedure mentioned above.

Stellaria media (STEME) [1] = test: Pre-emergence herbicidal action against Stellaria media; conditions: 1280 g/ha; scored visually after about 3 weeks vs untreated controls; 100% = plants have died, 0% = like control plants
Description: as §1

[2] = system: Amaranthus retroflexus (AMARE); test: Pre-emergence herbicidal action against Amaranthus retroflexus; conditions: 1280 g/ha; scored visually after about 3 weeks vs untreated controls; 100% = plants have died, 0% = like control plants
Description: as §1

[3] = system: Matricaria inodora (MATIN); test: Post-emergence herbicidal action against Matricaria inodora; conditions: 1280 g/ha; rated visually after about 3 weeks vs untreated controls; 100% = plants have died, 0% = like control plants; column head prints STEME
Experimental: (§2) Seeds of mono- and dicotyledonous weed plants were placed in plastic pots in sandy loam soil (doubly sown with in each case one species of mono- or dicotyledonous weed plants per pot), covered with soil and cultivated in a greenhouse under controlled growth conditions. 2 to 3 weeks after sowing, the test plants were treated at the one-leaf stage. The compounds of the invention, formulated in the form of wettable powders (WP) or as emulsion concentrates (EC), were applied onto the green parts of the plants as aqueous suspension or emulsion with addition of 0.5% additive at a water application rate of 600 liters per hectare (converted). After the test plants had been kept in the greenhouse under optimum growth conditions for about 3 weeks, the activity of the preparations was rated visually in comparison to untreated controls. For example, 100% activity=the plants have died, 0% activity=like control plants. Tables B1 to B8 below show the effects of selected compounds of the general formula (I) according to Table 1 on various harmful plants and an application rate corresponding to 1280 g/ha, which were obtained by the experimental procedure mentioned above.

Poa annua (POAAN) [4] = test: Pre-emergence herbicidal action against Poa annua; conditions: 1280 g/ha; scored visually after about 3 weeks vs untreated controls; 100% = plants have died, 0% = like control plants
Description: as §1

[5] = system: Matricaria inodora (MATIN); test: Pre-emergence herbicidal action against Matricaria inodora; conditions: 1280 g/ha; scored visually after about 3 weeks vs untreated controls; 100% = plants have died, 0% = like control plants
Description: as §1

Setaria viridis (SETVI) = test: Pre-emergence herbicidal action against Setaria viridis; conditions: 1280 g/ha; scored visually after about 3 weeks vs untreated controls; 100% = plants have died, 0% = like control plants
Description: as §1

Poa annua (POAAN) [6] = test: Post-emergence herbicidal action against Poa annua; conditions: 1280 g/ha; rated visually after about 3 weeks vs untreated controls; 100% = plants have died, 0% = like control plants
Experimental: as §2

Stellaria media (STEME) [7] = test: Post-emergence herbicidal action against Stellaria media; conditions: 1280 g/ha; rated visually after about 3 weeks vs untreated controls; 100% = plants have died, 0% = like control plants
Experimental: as §2

[8] = system: Amaranthus retroflexus (AMARE); test: Post-emergence herbicidal action against Amaranthus retroflexus; conditions: 1280 g/ha; rated visually after about 3 weeks vs untreated controls; 100% = plants have died, 0% = like control plants
Experimental: as §2

[9] = system: Echinochloa crus-galli (ECHCG); test: Post-emergence herbicidal action against Echinochloa crus-galli; conditions: 1280 g/ha; rated visually after about 3 weeks vs untreated controls; 100% = plants have died, 0% = like control plants
Experimental: as §2

[10] = system: Abutilon theophrasti (ABUTH); test: Pre-emergence herbicidal action against Abutilon theophrasti; conditions: 1280 g/ha; scored visually after about 3 weeks vs untreated controls; 100% = plants have died, 0% = like control plants
Description: as §1

[11] = system: Abutilon theophrasti (ABUTH); test: Post-emergence herbicidal action against Abutilon theophrasti; conditions: 1280 g/ha; rated visually after about 3 weeks vs untreated controls; 100% = plants have died, 0% = like control plants
Experimental: as §2

[12] = system: Echinochloa crus-galli (ECHCG); test: Pre-emergence herbicidal action against Echinochloa crus-galli; conditions: 1280 g/ha; scored visually after about 3 weeks vs untreated controls; 100% = plants have died, 0% = like control plants
Description: as §1

SMILES	Pre-emergence action against Lolium rigidum (LOLRI) (Lolium rigidum (LOLRI)) [%]	Pre-emergence action against Stellaria media (STEME) (Stellaria media (STEME) [1]) [%]	Pre-emergence action against Amaranthus retroflexus (AMARE) [2] [%]	Post-emergence action against Matricaria inodora (MATIN) [3] [%]	Pre-emergence action against Poa annua (POAAN) (Poa annua (POAAN) [4]) [%]	Pre-emergence action against Matricaria inodora (MATIN) [5] [%]	Pre-emergence action against Setaria viridis (SETVI) (Setaria viridis (SETVI)) [%]	Post-emergence action against Poa annua (POAAN) (Poa annua (POAAN) [6]) [%]	Post-emergence action against Stellaria media (STEME) (Stellaria media (STEME) [7]) [%]	Post-emergence action against Amaranthus retroflexus (AMARE) [8] [%]	Post-emergence action against Echinochloa crus-galli (ECHCG) [9] [%]	Pre-emergence action against Abutilon theophrasti (ABUTH) [10] [%]	Post-emergence action against Abutilon theophrasti (ABUTH) [11] [%]	Pre-emergence action against Echinochloa crus-galli (ECHCG) [12] [%]
Cc1ccc(Cc2ccc(F)cc2F)c(Oc2ncccn2)n1 [Example I-444]	90	100	100	90	100	100	100	100	90	–	–	–	–	–
Fc1cnc(Oc2ncccc2Sc2cccc(Cl)c2)nc1 [Example I-158]	–	100	100	–	90	–	90	–	100	100	100	–	–	–
Cc1ccnc(Oc2ncccn2)c1Sc1ccccc1 [Example I-216, 2-[(4-Methyl-3-phenylsulfanyl-2-pyridyl)oxy]pyrimidine]	90	100	100	–	100	100	100	100	100	100	100	100	100	100
Cc1ccc(Oc2ccc(Cl)cc2)c(Oc2ncc(F)cn2)n1 [Example I-515]	90	100	100	–	100	100	100	100	100	100	100	100	–	100
Cc1cc(C)c(Cc2ccc(C)c(F)c2)c(Oc2ncc(F)cn2)n1 [Example I-483]	90	100	100	–	100	100	100	90	100	90	–	100	90	90
Cc1ccnc(Oc2ncccn2)c1Sc1cccc(Cl)c1 [Example I-212]	100	100	100	–	100	100	100	100	100	–	100	100	–	100
Cc1ccnc(Oc2ncccn2)c1Sc1ccc(F)cc1F [Example I-210]	100	100	100	–	100	100	100	100	–	–	90	100	90	100
Cc1ccc(Oc2ccccc2)c(Oc2ncc(Cl)cn2)n1 [Example I-500]	100	100	100	–	100	90	100	100	100	–	90	100	100	100
Cc1ccc(Cc2ccc(F)cc2F)c(Oc2ncc(F)cn2)n1 [Example I-433]	90	100	100	–	100	100	100	100	100	90	–	100	90	100
Cc1ccc(Oc2ccc(Cl)cc2)c(Oc2ncc(Cl)cn2)n1 [Example I-504]	90	100	100	–	90	90	100	100	100	100	90	90	–	–
